What is called melting point is the temperature of the solid-liquid transition. In general, IC50 refers to the point on the concentration scale where inhibition reaches its midpoint.

The structures appear in SMILES notation. Like-named read-outs stand apart in the source and are kept apart here.

This is an account of results in PMC11597353, “Synthesis of Novel Gefitinib-Conjugated 1,2,3-Triazole Derivatives and Their Effect of Inducing DNA Damage and Apoptosis in Tumor Cells” (Molecules, 2024).

For series [1], the system named is HepG2 cells. Nature of the series: CCK8 cell viability / IC50 assay on HepG2 cells. The settings on record: for % Cell Viability (10 μM): 72 h; for IC50: read-out: HepG2, IC50 (μM) 72 h.
Series [2] deals with breast cancer cells (MDA-MB-468). Also on record: method as in PMID 31586710. Particulars: 2.5 μM; cited from earlier work.
A further series relates to MCF-7. Also on record: method as in PMID 31078767. Particulars: MCF-7, MTT method; cited from earlier work. In general terms: Formazan colour is commonly taken as a measure of viable cells.
Another series has as its system HT-29. Also on record: method as in PMID 31078767. Particulars: HT-29, MTT method; cited from earlier work.
A further series deals with MOLT-4. The arrangement: method as in PMID 31078767. The settings on record: MOLT-4, MTT method; cited from earlier work.
Series [3] deals with HepG2 cells. The arrangement: method as in PMID 32745759. The settings on record: read-out: IC50, growth of HepG2 cells; cited from earlier work.
Series [4] concerns HepG2 cells. Also on record: method as in PMID 34237623, PMID 38675717. Particulars: read-out: IC50, inhibitory activity against HepG2 cells; cited from earlier work.
In another series the test system is EGFR T790M. Also on record: method as in PMID 37611529. Particulars: cited from earlier work.
Another series relates to VEGFR-2. The arrangement: method as in PMID 37611529. The settings on record: cited from earlier work.

Turning to `COc1cc2ncnc(Nc3cccc(-c4cn(Cc5ccccc5[N+](=O)[O-])nn4)c3)c2cc1OCCCN1CCOCC1` [Compound 11i, 7-methoxy-6-(3-morpholinopropoxy)-N-(3-(1-(2-nitrobenzyl)-1H-1,2,3-triazol-4-yl)phenyl)quinazolin-4-amine], in the series on HepG2 cells [1], the “% Cell Viability (10 μM)” value is reported as 70.10 ± 3.40%.
In the case of `COc1cc2ncnc(Nc3cccc(-c4cn(Cc5cc(F)ccc5C#N)nn4)c3)c2cc1OCCCN1CCOCC1` [Compound 11r, 4-fluoro-2-((4-(3-((7-methoxy-6-(3-morpholinopropoxy)quinazolin-4-yl)amino)phenyl)-1H-1,2,3-triazol-1-yl)methyl)benzonitrile], the melting point lay within 164 to 166 °C. In the series on HepG2 cells [1], the “% Cell Viability (10 μM)” value was determined as 9.11 ± 1.63% and the IC50 was 6.68 ± 0.11 µM.
In the case of `COc1cc2ncnc(Nc3cccc(-c4cn(Cc5cc(Br)cc(Br)c5)nn4)c3)c2cc1OCCCN1CCOCC1` [Compound 11c, N-(3-(1-(3,5-dibromobenzyl)-1H-1,2,3-triazol-4-yl)phenyl)-7-methoxy-6-(3-morpholinopropoxy)quinazolin-4-amine], the “% Cell Viability (10 μM)” value in the series with HepG2 cells [1] stood at 37.72 ± 2.38%.
As for `O=C(C1=Cc2cc3ccccc3n2Cc2cnnn21)c1ccccc1` [Compound 3], the “colony formation in breast cancer cells (MDA-MB-468)” value in [2] is reported as “completely inhibited”.
As for `O=C1C=C(NCc2cn(Cc3ccc(C(F)(F)F)cc3)nn2)C(=O)c2ccccc21` [Compound 2], the IC50 in the series with MCF-7 is 10.4 µM; in the series on HT-29 it was 6.8 µM; with MOLT-4, 8.4 µM.
`COc1cc2ncnc(Nc3cccc(-c4cn(Cc5ccc(C)cc5)nn4)c3)c2cc1OCCCN1CCOCC1` [Compound 11d, 7-methoxy-N-(3-(1-(4-methylbenzyl)-1H-1,2,3-triazol-4-yl)phenyl)-6-(3-morpholinopropoxy)quinazolin-4-amine] had a melting point of 168 to 169 °C. The “% Cell Viability (10 μM)” value in the series on HepG2 cells [1] is 36.48 ± 2.89%.
Take `COc1cc2ncnc(Nc3cccc(-c4cn(Cc5cc(C)cc(C)c5)nn4)c3)c2cc1OCCCN1CCOCC1` [Compound 11q, N-(3-(1-(3,5-dimethylbenzyl)-1H-1,2,3-triazol-4-yl)phenyl)-7-methoxy-6-(3-morpholinopropoxy)quinazolin-4-amine]: the melting point lay within 172 to 173 °C. Also, in the series on HepG2 cells [1], the “% Cell Viability (10 μM)” value stood at 7.14 ± 0.95% and the IC50 worked out at 5.38 ± 0.57 µM.
Taken in the same sequence, the figures for `COc1cc2ncnc(Nc3cccc(-c4cn(Cc5ccccc5C)nn4)c3)c2cc1OCCCN1CCOCC1` [Compound 11p, 7-methoxy-N-(3-(1-(2-methylbenzyl)-1H-1,2,3-triazol-4-yl)phenyl)-6-(3-morpholinopropoxy)quinazolin-4-amine] were 169 to 171 °C, 17.36 ± 1.24% and 10.1 ± 0.14 µM.
Taken in the same sequence, the figures for `COc1cc2ncnc(Nc3cccc(-c4cn(Cc5ccc(Cl)cc5)nn4)c3)c2cc1OCCCN1CCOCC1` [Compound 11o, N-(3-(1-(4-chlorobenzyl)-1H-1,2,3-triazol-4-yl)phenyl)-7-methoxy-6-(3-morpholinopropoxy)quinazolin-4-amine] were 165 to 167 °C, 8.06 ± 0.88% and 5.14 ± 0.25 µM.
On to `Cc1cc(C)nc(NS(=O)(=O)c2ccc(-n3cc(CCc4nc5ccccc5s4)nn3)cc2)n1` [Compound 4], for which the IC50 with HepG2 cells [3] was 1.49 µM.
`COc1cc2ncnc(Nc3cccc(-c4cn(Cc5ccc(F)c(Cl)c5)nn4)c3)c2cc1OCCCN1CCOCC1` [Compound 11g, N-(3-(1-(3-chloro-4-fluorobenzyl)-1H-1,2,3-triazol-4-yl)phenyl)-7-methoxy-6-(3-morpholinopropoxy)quinazolin-4-amine]: the melting point lay in the range of 179 to 181 °C. In the series with HepG2 cells [1], the “% Cell Viability (10 μM)” value is reported as 6.50 ± 0.88% and the IC50 was 5.23 ± 0.2 µM.
On to `COc1cc2ncnc(Nc3cccc(-c4cn(Cc5ccccc5C#N)nn4)c3)c2cc1OCCCN1CCOCC1` [Compound 11b, 2-((4-(3-((7-methoxy-6-(3-morpholinopropoxy)quinazolin-4-yl)amino)phenyl)-1H-1,2,3-triazol-1-yl)methyl)benzonitrile], for which the melting point lay within 167 to 168 °C. In the series with HepG2 cells [1], the “% Cell Viability (10 μM)” value is 59.50 ± 2.74%.
As for `COc1cc(C(=O)c2nc3ccccc3c(=O)[nH]2)cc(OC)c1OC` [Compound 8], the IC50 in the series on HepG2 cells [4] was 1.22 µM.
For the compound `COc1cc2ncnc(Nc3cccc(-c4cn(Cc5ccc([N+](=O)[O-])cc5)nn4)c3)c2cc1OCCCN1CCOCC1` [Compound 11j, 7-methoxy-6-(3-morpholinopropoxy)-N-(3-(1-(4-nitrobenzyl)-1H-1,2,3-triazol-4-yl)phenyl)quinazolin-4-amine], the melting point was 171 to 173 °C. In the series on HepG2 cells [1], the “% Cell Viability (10 μM)” value was determined as 47.33 ± 2.17%.
Regarding `COc1cc2ncnc(Nc3cccc(-c4cn(Cc5cc(F)ccc5Br)nn4)c3)c2cc1OCCCN1CCOCC1` [Compound 11e, N-(3-(1-(2-bromo-5-fluorobenzyl)-1H-1,2,3-triazol-4-yl)phenyl)-7-methoxy-6-(3-morpholinopropoxy)quinazolin-4-amine], in the series on HepG2 cells [1], the “% Cell Viability (10 μM)” value amounted to 7.03 ± 0.16% and the IC50 is 4.04 ± 0.21 µM.
Take `NS(=O)(=O)c1ccc(-n2c(SCC(=O)Nc3cccc4ccccc34)nc3ccc(I)cc3c2=O)cc1` [Compound 7]: the IC50 in the series with EGFR T790M is 0.0728 µM; in the series with VEGFR-2, 0.0523 µM.
Compound `COc1cc2ncnc(Nc3cccc(-c4cn(Cc5ccccc5F)nn4)c3)c2cc1OCCCN1CCOCC1` [Compound 11k, N-(3-(1-(2-fluorobenzyl)-1H-1,2,3-triazol-4-yl)phenyl)-7-methoxy-6-(3-morpholinopropoxy)quinazolin-4-amine] gave a melting point of 184 to 186 °C. Further, in the series on HepG2 cells [1], the “% Cell Viability (10 μM)” value is reported as 14.72 ± 2.29% and the half-maximal inhibitory concentration (IC50) came to 6.21 ± 0.24 µM.
`COc1cc(Cn2cc(-c3cccc(Nc4ncnc5cc(OC)c(OCCCN6CCOCC6)cc45)c3)nn2)cc(OC)c1` [Compound 11s, N-(3-(1-(3,5-dimethoxybenzyl)-1H-1,2,3-triazol-4-yl)phenyl)-7-methoxy-6-(3-morpholinopropoxy)quinazolin-4-amine]: the melting point was in the range of 167 to 170 °C. For the same compound, in the series with HepG2 cells [1], the “% Cell Viability (10 μM)” value turned out to be 22.89 ± 1.97%.
In turn, `COc1cc2ncnc(Nc3cccc(-c4cn(Cc5cccc(Cl)c5)nn4)c3)c2cc1OCCCN1CCOCC1` [Compound 11n, N-(3-(1-(3-chlorobenzyl)-1H-1,2,3-triazol-4-yl)phenyl)-7-methoxy-6-(3-morpholinopropoxy)quinazolin-4-amine] registered a melting point of 164 to 165 °C. Further, in the series on HepG2 cells [1], the “% Cell Viability (10 μM)” value came to 7.68 ± 0.34% and the half-inhibitory concentration (IC50) is 6.1 ± 0.06 µM.
Turning to `COc1cc2ncnc(Nc3ccc(F)c(Cl)c3)c2cc1OCCCN1CCOCC1` [Gefitinib], in the series with HepG2 cells [1], the “% Cell Viability (10 μM)” value was 31.03 ± 2.42%.
The compound `COc1cc2ncnc(Nc3cccc(-c4cn(Cc5ccc(Br)cc5)nn4)c3)c2cc1OCCCN1CCOCC1` [Compound 11a, N-(3-(1-(4-bromobenzyl)-1H-1,2,3-triazol-4-yl)phenyl)-7-methoxy-6-(3-morpholinopropoxy)quinazolin-4-amine] registered a melting point of 177 to 178 °C. Besides, in the series with HepG2 cells [1], the “% Cell Viability (10 μM)” value was 7.07 ± 0.49% and the IC50 stood at 5.49 ± 0.21 µM.
For `COc1cc2ncnc(Nc3cccc(-c4cn(Cc5c(F)cccc5Cl)nn4)c3)c2cc1OCCCN1CCOCC1` [Compound 11h, N-(3-(1-(2-chloro-6-fluorobenzyl)-1H-1,2,3-triazol-4-yl)phenyl)-7-methoxy-6-(3-morpholinopropoxy)quinazolin-4-amine] the same measures were 177 to 180 °C, 6.80 ± 0.14% and 3.91 ± 0.08 µM.
Regarding `COc1cc2ncnc(Nc3cccc(-c4cn(Cc5ccc(Br)cc5F)nn4)c3)c2cc1OCCCN1CCOCC1` [Compound 11f, N-(3-(1-(4-bromo-2-fluorobenzyl)-1H-1,2,3-triazol-4-yl)phenyl)-7-methoxy-6-(3-morpholinopropoxy)quinazolin-4-amine], the melting point lay in the range of 169 to 170 °C. Moreover, in the series with HepG2 cells [1], the “% Cell Viability (10 μM)” value amounted to 5.72 ± 0.40% and the IC50 came out at 5.15 ± 0.31 µM.
As for `COc1cc2ncnc(Nc3cccc(-c4cn(Cc5ccc(C(F)(F)F)cc5)nn4)c3)c2cc1OCCCN1CCOCC1` [Compound 11l, 7-methoxy-6-(3-morpholinopropoxy)-N-(3-(1-(4-(trifluoromethyl)benzyl)-1H-1,2,3-triazol-4-yl)phenyl)quinazolin-4-amine], in the series with HepG2 cells [1], the “% Cell Viability (10 μM)” value stood at 5.85 ± 1.15% and the IC50 came out at 4.53 ± 0.37 µM.
